Laboratory results published in US6500853B1, “Inhibitors of phospholipase enzymes” (Genetics Institute, LLC, priority 1998, dated 2002).

What was measured:
[1] = system: Rat Carrageenan-Induced Footpad Edema; assay: Rat Carrageenan-Induced Footpad Edema Test; assay type: in vivo, male Sprague Dawley rats; details: footpad volume 3 hours after carrageenan; for inhibition in vivo at 5 mg/kg / inhibition in vivo at 2 mg/kg / inhibition in vivo at 10 mg/kg: Rattus norvegicus, 3 h, read-out: PERCENT INHIBITION; for inhibition in vivo at 5 mg/kg: iv, IV; for PERCENT INHIBITION / inhibition in vivo at 2 mg/kg / inhibition in vivo at 10 mg/kg: PO; for inhibition in vivo at 2 mg/kg / inhibition in vivo at 10 mg/kg: po
[2] = target: T1, cPLA2 (Homo sapiens, UniProt P47712); assay: Coumarin Assay (cPLA2 inhibition); assay type: biochemical; details: for inhibition at 3.8 µM: CONCENTRATION 3.8 micromolar; for inhibition at 2.2 µM: CONCENTRATION 2.2 micromolar; for inhibition at 1.8 µM: CONCENTRATION 1.8 micromolar
T1 sequence (P47712 1-749): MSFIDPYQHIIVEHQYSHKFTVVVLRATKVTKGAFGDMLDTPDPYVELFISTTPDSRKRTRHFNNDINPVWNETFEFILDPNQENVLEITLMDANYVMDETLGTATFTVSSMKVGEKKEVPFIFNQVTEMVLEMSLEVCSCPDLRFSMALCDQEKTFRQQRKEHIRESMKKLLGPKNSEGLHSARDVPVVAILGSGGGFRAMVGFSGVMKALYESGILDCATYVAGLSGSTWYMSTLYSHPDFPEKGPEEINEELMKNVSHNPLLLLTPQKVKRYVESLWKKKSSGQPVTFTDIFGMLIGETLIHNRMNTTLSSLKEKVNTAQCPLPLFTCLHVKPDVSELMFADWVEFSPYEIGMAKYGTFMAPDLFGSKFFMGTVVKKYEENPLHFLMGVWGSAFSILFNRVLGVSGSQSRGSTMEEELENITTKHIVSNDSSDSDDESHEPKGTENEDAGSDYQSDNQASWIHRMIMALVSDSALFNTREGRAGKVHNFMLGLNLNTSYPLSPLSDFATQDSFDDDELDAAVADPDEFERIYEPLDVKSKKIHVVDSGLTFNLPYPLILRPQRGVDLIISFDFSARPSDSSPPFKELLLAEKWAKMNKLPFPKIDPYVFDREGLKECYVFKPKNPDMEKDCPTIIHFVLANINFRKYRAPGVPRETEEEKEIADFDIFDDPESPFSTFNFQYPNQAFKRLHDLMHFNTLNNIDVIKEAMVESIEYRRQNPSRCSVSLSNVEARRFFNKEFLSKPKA
Method in brief: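 Percent inhibition at the stated concentration, from the rate of 460 nm emission rise (360 nm excitation) per minute. Reaction started by adding 4 μg enzyme to compound and 60 μM 7-hydroxycoumarinyl 6-heptenoate in Hepes buffer pH 7.5 with 1 mM EDTA.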

[3] = CONCENTRATION 2.5 micromolar, read-out: PERCENT INHIBITION @

COc1cc(C(=O)NS(=O)(=O)C(F)(F)F)ccc1Cc1cn(C(c2ccccc2)c2ccccc2)c2ccc(NS(C)(=O)=O)cc12 [Example 41, N-[4-({1-benzhydryl-5-[(methylsulfonyl)amino]-1H-indol-3-yl}methyl)-3-methoxybenzoyl](trifluoro)methanesulfonamide]
inhibition in vivo at 5 mg/kg [1]: 10.1% | inhibition at 2.5 µM [2, 3]: 50% | inhibition at 3.8 µM ([2]; read-out: PERCENT INHIBITION @): 50% | inhibition at 4.3 µM ([2]; CONCENTRATION 4.3 micromolar, read-out: PERCENT INHIBITION @): 50% | inhibition at 5 µM ([2]; CONCENTRATION 5 micromolar, read-out: PERCENT INHIBITION @): 50%

CCCCNC(=O)Nc1ccc2c(c1)c(Cc1ccc(C(=O)NS(=O)(=O)C(F)(F)F)cc1OC)cn2C(c1ccccc1)c1ccccc1 [Example 42, N-{4-[(1-benzhydryl-5-{[(butylamino)carbonyl]amino}-1H-indol-3-yl)methyl]-3-methoxybenzoyl}(trifluoro)methanesulfonamide]
inhibition in vivo at 5 mg/kg [1]: 7.72% | inhibition at 2.2 µM ([2]; read-out: PERCENT INHIBITION @): 50% | inhibition at 3 µM ([2]; CONCENTRATION 3 micromolar, read-out: PERCENT INHIBITION @): 50% | inhibition at 3.8 µM ([2]; read-out: PERCENT INHIBITION @): 50%

COc1cc(C(=O)NS(=O)(=O)C(F)(F)F)ccc1Cc1cn(C(c2ccccc2)c2ccccc2)c2ccc(NS(=O)(=O)Cc3ccccc3)cc12 [Example 45, N-[4-({1-benzhydryl-5-[(benzylsulfonyl)amino]-1H-indol-3-yl}methyl)-3-methoxybenzoyl](trifluoro)methanesulfonamide]
inhibition in vivo at 5 mg/kg [1]: 10.2% | inhibition at 1.75 µM ([2]; CONCENTRATION 1.75 micromolar, read-out: PERCENT INHIBITION @): 50% | inhibition at 1.8 µM ([2]; read-out: PERCENT INHIBITION @): 50% | inhibition at 1.9 µM ([2]; CONCENTRATION 1.9 micromolar, read-out: PERCENT INHIBITION @): 50% | inhibition at 2 µM ([2]; CONCENTRATION 2 micromolar, read-out: PERCENT INHIBITION @): 50% | inhibition at 2.1 µM ([2]; CONCENTRATION 2.1 micromolar, read-out: PERCENT INHIBITION @): 50% | inhibition at 2.5 µM [2, 3]: 74%

COc1cc(C(=O)NS(=O)(=O)C(F)(F)F)ccc1Cc1cn(C(c2ccccc2)c2ccccc2)c2ccc(NC(=O)c3ccsc3)cc12 [Example 46, N-{1-benzhydryl-3-[2-methoxy-4-({[(trifluoromethyl)sulfonyl]amino}carbonyl)benzyl]-1H-indol-5-yl}-3-thiophenecarboxamide]
inhibition in vivo at 5 mg/kg [1]: 4.58% | inhibition at 2.2 µM ([2]; read-out: PERCENT INHIBITION @): 50% | inhibition at 2.5 µM [2, 3]: 67% | inhibition at 2.7 µM ([2]; CONCENTRATION 2.7 micromolar, read-out: PERCENT INHIBITION @): 50% | inhibition at 3.5 µM ([2]; CONCENTRATION 3.5 micromolar, read-out: PERCENT INHIBITION @): 50% | inhibition at 4.5 µM ([2]; CONCENTRATION 4.5 micromolar, read-out: PERCENT INHIBITION @): 50%

COc1cc(C(=O)NS(=O)(=O)C(F)(F)F)ccc1Cc1cn(C(c2ccccc2)c2ccccc2)c2ccc(NC(=O)OCc3ccccc3)cc12 [Example 49, benzyl N-{1-benzhydryl-3-[2-methoxy-4-({[(trifluoromethyl)sulfonyl]amino}carbonyl)benzyl]-1H-indol-5-yl}carbamate]
inhibition in vivo at 5 mg/kg [1]: 18% | inhibition at 1.5 µM ([2]; CONCENTRATION 1.5 micromolar, read-out: PERCENT INHIBITION @): 50% | inhibition at 1.8 µM ([2]; read-out: PERCENT INHIBITION @): 50% | inhibition at 2.3 µM ([2]; CONCENTRATION 2.3 micromolar, read-out: PERCENT INHIBITION @): 50%

O=C(O)c1ccc(Cc2cn(C(c3ccccc3)c3ccccc3)c3ccc([N+](=O)[O-])cc23)cc1 [Example 50, 4-[(-benzhydryl-5-nitro-1H-indol-3-yl)methyl]benzoic acid]
PERCENT INHIBITION ([1]; 2 mg/Kg): 5.44% | PERCENT INHIBITION ([1]; 10 mg/Kg): 12.34% | PERCENT INHIBITION @ ([2]; CONCENTRATION 0.8 micromolar): 50% | PERCENT INHIBITION @ ([2]; CONCENTRATION 0.85 micromolar): 50% | PERCENT INHIBITION @ ([2]; CONCENTRATION 1.05 micromolar): 50% | PERCENT INHIBITION @ ([2]; CONCENTRATION 2.5 micromolar): 81%

O=C(O)c1ccc(Cc2cn(C(c3ccccc3)c3ccccc3)c3ccc(Br)cc23)cc1 [Example 51, 4-[(1-benzhydryl-5-bromo-1H-indol-3-yl)methyl]benzoic acid]
inhibition in vivo at 2 mg/kg ([1]; 2 mg/Kg): 3.23% | inhibition in vivo at 10 mg/kg ([1]; 10 mg/Kg): 15.4% | inhibition at 0.6 µM ([2]; CONCENTRATION 0.6 micromolar, read-out: PERCENT INHIBITION @): 50% | inhibition at 0.8 µM ([2]; CONCENTRATION 0.8 micromolar, read-out: PERCENT INHIBITION @): 50% | inhibition at 0.9 µM ([2]; CONCENTRATION 0.9 micromolar, read-out: PERCENT INHIBITION @): 50%

O=C(Nc1ccc2c(c1)c(Cc1ccc(C(=O)O)cc1)cn2C(c1ccccc1)c1ccccc1)OC1CCCC1 [Example 52, 4-[(1-benzhydryl-5-{[(cyclopentyloxy)carbonyl]amino}-1H-indol-3-yl)methyl]benzoic acid]
inhibition in vivo at 2 mg/kg ([1]; 2 mg/Kg): -6.75% | inhibition in vivo at 10 mg/kg ([1]; 10 mg/Kg): 3.33% | inhibition at 19 µM ([2]; CONCENTRATION 19 micromolar, read-out: PERCENT INHIBITION @): 50% | inhibition at 20 µM ([2]; CONCENTRATION 20 micromolar, read-out: PERCENT INHIBITION @): 50%

Cc1ccccc1S(=O)(=O)NC(=O)c1ccc(Cc2cn(C(c3ccccc3)c3ccccc3)c3ccc(NC(=O)OC4CCCC4)cc23)cc1 [Example 53, cyclopentyl N-{1-benzhydryl-3-[4-({[(2-methylphenyl)sulfonyl]1amino}carbonyl)benzyl]-1H-indol-5-yl}carbamate]
PERCENT INHIBITION ([1]; 2 mg/Kg): −1.81% | PERCENT INHIBITION ([1]; 10 mg/Kg): 11.35% | PERCENT INHIBITION @ ([2]; CONCENTRATION 11 micromolar): 50% | PERCENT INHIBITION @ ([2]; CONCENTRATION 15.5 micromolar): 50%

O=C(Nc1ccc2c(c1)c(Cc1ccc(C(=O)NS(=O)(=O)C(F)(F)F)cc1)cn2C(c1ccccc1)c1ccccc1)OC1CCCC1 [Example 54]
PERCENT INHIBITION ([1]; 2 mg/Kg): 2.47% | PERCENT INHIBITION ([1]; 10 mg/Kg): 14.29% | PERCENT INHIBITION @ ([2]; CONCENTRATION 2.8 micromolar): 50% | PERCENT INHIBITION @ ([2]; CONCENTRATION 3.9 micromolar): 50%

O=C(NS(=O)(=O)C(F)(F)F)c1ccc(Cc2cn(C(c3ccccc3)c3ccccc3)c3ccc([N+](=O)[O-])cc23)cc1 [Example 55, N-{4-[(1-benzhydryl-5-nitro-1H-indol-3-yl)methyl]benzoyl}(trifluoro)methanesulfonamide]
inhibition in vivo at 2 mg/kg ([1]; 2 mg/Kg): 7.02% | inhibition in vivo at 10 mg/kg ([1]; 10 mg/Kg): 21.5% | inhibition at 1.35 µM ([2]; CONCENTRATION 1.35 micromolar, read-out: PERCENT INHIBITION @): 50%

Cc1ccccc1S(=O)(=O)NC(=O)c1ccc(Cc2cn(C(c3ccccc3)c3ccccc3)c3ccc([N+](=O)[O-])cc23)cc1 [Example 56, N-{4-[(1-benzhydryl-5-nitro-1H-indol-3-yl)methyl]benzoyl}-2-methylbenzenesulfonamide]
inhibition in vivo at 2 mg/kg ([1]; 2 mg/Kg): 4.22% | inhibition in vivo at 10 mg/kg ([1]; 10 mg/Kg): 9.34% | inhibition at 0.98 µM ([2]; CONCENTRATION 0.98 micromolar, read-out: PERCENT INHIBITION @): 50% | inhibition at 1.2 µM ([2]; CONCENTRATION 1.2 micromolar, read-out: PERCENT INHIBITION @): 50%

Cc1ccccc1S(=O)(=O)NC(=O)c1ccc(Cc2cn(C(c3ccccc3)c3ccccc3)c3ccc(Br)cc23)cc1 [Example 57, N-{4-[(1-benzhydryl-5-bromo-1H-indol-3-yl)methyl]benzoyl}-2-methylbenzenesulfonamide]
inhibition in vivo at 2 mg/kg ([1]; 2 mg/Kg): 10.4% | inhibition in vivo at 10 mg/kg ([1]; 10 mg/Kg): 20.7% | inhibition at 1.05 µM ([2]; CONCENTRATION 1.05 micromolar, read-out: PERCENT INHIBITION @): 50% | inhibition at 1.38 µM ([2]; CONCENTRATION 1.38 micromolar, read-out: PERCENT INHIBITION @): 50% | inhibition at 1.4 µM ([2]; CONCENTRATION 1.4 micromolar, read-out: PERCENT INHIBITION @): 50%

O=C(NS(=O)(=O)C(F)(F)F)c1ccc(Cc2cn(C(c3ccccc3)c3ccccc3)c3ccc(Br)cc23)cc1 [Example 58, N-{4-[(1-benzhydryl-5-bromo-1H-indol-3-yl)methyl]benzoyl}(trifluoro)methanesulfonamide]
inhibition in vivo at 2 mg/kg ([1]; 2 mg/Kg): 13.8% | inhibition in vivo at 10 mg/kg ([1]; 10 mg/Kg): 9.96% | inhibition at 1.65 µM ([2]; CONCENTRATION 1.65 micromolar, read-out: PERCENT INHIBITION @): 50%
